Reference: patent publication US4443436A, “C-20-Modified macrolide derivatives of the macrolide antibiotics tylosin, desmycosin, macrocin, and lactenocin” (Eli Lilly and Company, priority 1982, dated 1984)
Values after ≈ are worked out from the molar mass of the structure shown.

Tests used:
[1] = tested on: Streptococcus pneumoniae Park I; test: microbe, parasite or virus in culture; assay type: cell-based; conditions: Streptococcus pneumoniae Park I; agar dilution
[2] = tested on: Pasteurella multocida 17E; test: MIC, broth-dilution microtiter test, Pasteurella multocida 17E; assay type: cell-based; conditions: Pasteurella multocida 17E; bovine isolate; broth-dilution microtiter
Excerpt: (§1) The MIC's in Table X were obtained using conventional broth-dilution microtiter tests.

[3] = tested on: Staphylococcus aureus X1.1; test: MIC, standard agar-dilution assay, Staphylococcus aureus X1.1; assay type: cell-based; conditions: Staphylococcus aureus X1.1; agar dilution
[4] = tested on: Streptococcus pyogenes C203; test: MIC, standard agar-dilution assay, Streptococcus pyogenes C203; assay type: cell-based; conditions: Streptococcus pyogenes C203; agar dilution
[5] = tested on: Staphylococcus aureus V41; test: MIC, standard agar-dilution assay, Staphylococcus aureus V41; assay type: cell-based; conditions: Staphylococcus aureus V41; penicillin-resistant strain; agar dilution
[6] = tested on: Pasteurella hemolytica 22C; test: MIC, broth-dilution microtiter test, Pasteurella hemolytica 22C; assay type: cell-based; conditions: Pasteurella hemolytica 22C; broth-dilution microtiter
Excerpt: as §1

[7] = tested on: Staphylococcus epidermidis EPI1; test: MIC, standard agar-dilution assay, Staphylococcus epidermidis EPI1; assay type: cell-based; conditions: Staphylococcus epidermidis EPI1; agar dilution
[8] = tested on: Haemophilus influenzae R252; test: MIC, standard agar-dilution assay, Haemophilus influenzae R252; assay type: cell-based; conditions: Haemophilus influenzae R252; ampicillin-resistant strain; agar dilution
Streptococcus Group 9960 = test: MIC, standard agar-dilution assay, Streptococcus Group 9960; assay type: cell-based; conditions: Streptococcus Group 9960; agar dilution
[9] = tested on: Pasteurella multocida 60A; test: MIC, broth-dilution microtiter test, Pasteurella multocida 60A; assay type: cell-based; conditions: Pasteurella multocida 60A; avian isolate; broth-dilution microtiter
Excerpt: as §1

Mycoplasma gallisepticum = test: MIC, broth-dilution microtiter test, Mycoplasma gallisepticum; assay type: cell-based; conditions: Mycoplasma gallisepticum; broth-dilution microtiter
Excerpt: as §1

[10] = tested on: Staphylococcus epidermidis EPI2; test: MIC, standard agar-dilution assay, Staphylococcus epidermidis EPI2; assay type: cell-based; conditions: Staphylococcus epidermidis EPI2; agar dilution
[11] = tested on: Staphylococcus aureus S13E; test: MIC, standard agar-dilution assay, Staphylococcus aureus S13E; assay type: cell-based; conditions: Staphylococcus aureus S13E; agar dilution
[12] = tested on: Staphylococcus aureus X400; test: MIC, standard agar-dilution assay, Staphylococcus aureus X400; assay type: cell-based; conditions: Staphylococcus aureus X400; methicillin-resistant strain; agar dilution
[13] = tested on: Haemophilus influenzae Holt; test: MIC, standard agar-dilution assay, Haemophilus influenzae Holt; assay type: cell-based; conditions: Haemophilus influenzae Holt; ampicillin-sensitive strain; agar dilution
[14] = tested on: Streptococcus pyogenes C203; test: In vivo protection of mice experimentally infected with S. pyogenes C203; conditions: mice, doses given 1 and 4 hours post-infection
Procedure: The C-20 modified derivatives of this invention have shown in vivo antimicrobial activity against experimentally-induced infections in laboratory animals. When two doses of test compound were administered to mice experimentally infected with S. pyogenes C203, the activity observed was measured as an ED50 value [effective dose in mg/kg to protect 50% of the test animals: see Warren Wick, et al., J. Bacteriol. 81, 233-235 (1961)].

Mycoplasma hyopneumoniae = test: MIC, broth-dilution microtiter test, Mycoplasma hyopneumoniae; assay type: cell-based; conditions: Mycoplasma hyopneumoniae; broth-dilution microtiter
Excerpt: as §1

Mycoplasma hyorhinis = test: MIC, broth-dilution microtiter test, Mycoplasma hyorhinis; assay type: cell-based; conditions: Mycoplasma hyorhinis; broth-dilution microtiter
Excerpt: as §1

[15] = tested on: Streptococcus Group D X66; test: MIC, standard agar-dilution assay, Streptococcus Group D X66; assay type: cell-based; conditions: Streptococcus Group D X66; agar dilution
Staphylococcus aureus = test: MIC, broth-dilution microtiter test, Staphylococcus aureus; assay type: cell-based; conditions: broth-dilution microtiter
Excerpt: as §1

Streptococcus bovis 80 = test: MIC, broth-dilution microtiter test, Streptococcus bovis 80; assay type: cell-based; conditions: Streptococcus bovis 80; broth-dilution microtiter
Excerpt: as §1

Mycoplasma synoviae = test: MIC, broth-dilution microtiter test, Mycoplasma synoviae; assay type: cell-based; conditions: Mycoplasma synoviae; broth-dilution microtiter
Excerpt: as §1

SMILES: CCC(=O)OC1C(OC2C(CCCl)CC(C)C(=O)C=CC(C)=CC(COC3OC(C)C(O)C(OC)C3OC)C(CC)OC(=O)CC(O)C2C)OC(C)C(O)C1N(C)C (stereo not drawn) [Compound 69, 20-DH-DO-20-Chloro-2'-O-propionyldesmycosin]
- MIC [1]: 0.25 µg/mL (≈ 0.295 µM)
- MIC [2]: 25 µg/mL (≈ 29.5 µM)
- MIC [3]: 0.25 µg/mL (≈ 0.295 µM)
- MIC [4]: 2 µg/mL (≈ 2.36 µM)
- MIC [5]: 0.25 µg/mL (≈ 0.295 µM)
- MIC [6]: 25 µg/mL (≈ 29.5 µM)
- MIC [7]: 0.25 µg/mL (≈ 0.295 µM)
- MIC [8]: 16 µg/mL (≈ 18.9 µM)
- MIC (Streptococcus Group 9960): 8 µg/mL (≈ 9.43 µM)
- MIC [9]: 2.5 µg/mL (≈ 2.95 µM)
- MIC (Mycoplasma gallisepticum): 0.39 µg/mL (≈ 0.46 µM)
- MIC [10]: 0.12 µg/mL (≈ 0.141 µM)
- MIC [11]: 0.25 µg/mL (≈ 0.295 µM)
- MIC [12]: 0.5 µg/mL (≈ 0.589 µM)
- MIC [13]: 16 µg/mL (≈ 18.9 µM)
- ED50, Oral [14]: 27 mg/kg × 2
- ED50, Subcutaneous [14]: 3.3 mg/kg × 2
- MIC (Mycoplasma hyopneumoniae): 12.5 µg/mL (≈ 14.7 µM)
- MIC (Mycoplasma hyorhinis): 50 µg/mL (≈ 58.9 µM)
- MIC [15]: 8 µg/mL (≈ 9.43 µM)
- MIC (Staphylococcus aureus): 0.78 µg/mL (≈ 0.919 µM)
- MIC (Streptococcus bovis 80): 6.25 µg/mL (≈ 7.37 µM)

SMILES: CCC(=O)OC1C(OC2C(CCN3C(=O)c4ccccc4C3=O)CC(C)C(=O)C=CC(C)=CC(COC3OC(C)C(O)C(OC)C3OC)C(CC)OC(=O)CC(O)C2C)OC(C)C(O)C1N(C)C (stereo not drawn) [Compound 65, 20-DH-DO-20-N-Phthalimido-2'-O-propionyldesmycosin]
- MIC [1]: 1 µg/mL (≈ 1.04 µM)
- MIC [2]: 25 µg/mL (≈ 26.1 µM)
- MIC [3]: 0.5 µg/mL (≈ 0.521 µM)
- MIC [4]: 0.5 µg/mL (≈ 0.521 µM)
- MIC [5]: 0.5 µg/mL (≈ 0.521 µM)
- MIC [6]: 25 µg/mL (≈ 26.1 µM)
- MIC [7]: 0.25 µg/mL (≈ 0.261 µM)
- MIC [8]: 32 µg/mL (≈ 33.4 µM)
- MIC (Streptococcus Group 9960): 8 µg/mL (≈ 8.34 µM)
- MIC [9]: 12.5 µg/mL (≈ 13 µM)
- MIC (Mycoplasma gallisepticum): < 0.05 µg/mL
- MIC [11]: 0.5 µg/mL (≈ 0.521 µM)
- MIC [12]: 0.5 µg/mL (≈ 0.521 µM)
- MIC [13]: 64 µg/mL (≈ 66.7 µM)
- ED50, Oral [14]: 20 mg/kg × 2
- ED50, Subcutaneous [14]: 1.7 mg/kg × 2
- MIC (Mycoplasma hyopneumoniae): 12.5 µg/mL (≈ 13 µM)
- MIC (Mycoplasma hyorhinis): -- (Not active at 50 mcg/ml, the highest level tested)
- MIC [15]: 8 µg/mL (≈ 8.34 µM)
- MIC (Staphylococcus aureus): 1.56 µg/mL (≈ 1.63 µM)
- MIC (Streptococcus bovis 80): 6.25 µg/mL (≈ 6.52 µM)

SMILES: CCC1OC(=O)CC(O)C(C)C(OC2OC(C)C(O)C(N(C)C)C2O)C(CCOc2ncnc3ccccc23)CC(C)C(=O)C=CC(C)=CC1COC1OC(C)C(O)C(OC)C1OC (stereo not drawn) [Compound 51, 20-DH-20-O-(Quinazolin-4-yl)desmycosin]
- MIC [1]: 0.5 µg/mL (≈ 0.554 µM)
- MIC [2]: 12.5 µg/mL (≈ 13.9 µM)
- MIC [3]: 0.25 µg/mL (≈ 0.277 µM)
- MIC [4]: 0.5 µg/mL (≈ 0.554 µM)
- MIC [5]: 0.25 µg/mL (≈ 0.277 µM)
- MIC [6]: -- (Not active at 50 mcg/ml, the highest level tested)
- MIC [7]: 0.25 µg/mL (≈ 0.277 µM)
- MIC [8]: 32 µg/mL (≈ 35.5 µM)
- MIC (Streptococcus Group 9960): 4 µg/mL (≈ 4.43 µM)
- MIC [9]: 12.5 µg/mL (≈ 13.9 µM)
- MIC (Mycoplasma gallisepticum): ≤ 0.048 µg/mL
- MIC [10]: 0.12 µg/mL (≈ 0.133 µM)
- MIC [11]: 0.25 µg/mL (≈ 0.277 µM)
- MIC (Mycoplasma synoviae): 0.39 µg/mL (≈ 0.432 µM)
- MIC [12]: 0.5 µg/mL (≈ 0.554 µM)
- MIC [13]: 16 µg/mL (≈ 17.7 µM)
- ED50, Oral [14]: > 50 mg/kg × 2
- ED50, Subcutaneous [14]: 5.4 mg/kg × 2
- MIC (Mycoplasma hyorhinis): 12.5 µg/mL (≈ 13.9 µM)
- MIC [15]: 4 µg/mL (≈ 4.43 µM)
- MIC (Staphylococcus aureus): 0.78 µg/mL (≈ 0.865 µM)
- MIC (Streptococcus bovis 80): 0.78 µg/mL (≈ 0.865 µM)

SMILES: CCC1OC(=O)CC(O)C(C)C(OC2OC(C)C(O)C(N(C)C)C2O)C(CCOc2nnc(-c3ccccc3)c(-c3ccccc3)n2)CC(C)C(=O)C=CC(C)=CC1COC1OC(C)C(O)C(OC)C1OC (stereo not drawn) [Compound 50, 20-DH-20-O-(5,6-Diphenyl-1,2,4-triazin-3-yl)desmycosin]
- MIC [1]: 0.5 µg/mL (≈ 0.497 µM)
- MIC [2]: 25 µg/mL (≈ 24.9 µM)
- MIC [3]: 0.5 µg/mL (≈ 0.497 µM)
- MIC [4]: 0.5 µg/mL (≈ 0.497 µM)
- MIC [5]: 0.5 µg/mL (≈ 0.497 µM)
- MIC [6]: -- (Not active at 50 mcg/ml, the highest level tested)
- MIC [7]: 0.5 µg/mL (≈ 0.497 µM)
- MIC [8]: 64 µg/mL (≈ 63.7 µM)
- MIC (Streptococcus Group 9960): 4 µg/mL (≈ 3.98 µM)
- MIC [9]: 25 µg/mL (≈ 24.9 µM)
- MIC (Mycoplasma gallisepticum): ≤ 0.048 µg/mL
- MIC [10]: 0.5 µg/mL (≈ 0.497 µM)
- MIC [11]: 0.5 µg/mL (≈ 0.497 µM)
- MIC (Mycoplasma synoviae): 0.39 µg/mL (≈ 0.388 µM)
- MIC [12]: 1 µg/mL (≈ 0.995 µM)
- MIC [13]: 64 µg/mL (≈ 63.7 µM)
- ED50, Oral [14]: > 50 mg/kg × 2
- ED50, Subcutaneous [14]: > 10 mg/kg × 2
- MIC (Mycoplasma hyorhinis): 12.5 µg/mL (≈ 12.4 µM)
- MIC [15]: 4 µg/mL (≈ 3.98 µM)
- MIC (Staphylococcus aureus): 1.56 µg/mL (≈ 1.55 µM)
- MIC (Streptococcus bovis 80): 3.12 µg/mL (≈ 3.1 µM)
